Source: patent US20090227601A1, “Bradykinin 1 Receptor Antagonists” (Amgen Inc., priority 2005, published 2009)
Where “and” joins values, the source holds several entries; their conditions need not be identical. Identical values can stand only once. Counter-ions that a name gives are not always drawn.

These molecules were tested against T1, hB2 receptor (Homo sapiens, UniProt P30411) (assay: In vitro Assay of hB2 Receptor Function using Calcium Flux). Details: recombinant CHO cells, antagonist IC50 against agonist at EC80.
T1 construct: host or cells: CHO-K1
T1 sequence (P30411 1-391): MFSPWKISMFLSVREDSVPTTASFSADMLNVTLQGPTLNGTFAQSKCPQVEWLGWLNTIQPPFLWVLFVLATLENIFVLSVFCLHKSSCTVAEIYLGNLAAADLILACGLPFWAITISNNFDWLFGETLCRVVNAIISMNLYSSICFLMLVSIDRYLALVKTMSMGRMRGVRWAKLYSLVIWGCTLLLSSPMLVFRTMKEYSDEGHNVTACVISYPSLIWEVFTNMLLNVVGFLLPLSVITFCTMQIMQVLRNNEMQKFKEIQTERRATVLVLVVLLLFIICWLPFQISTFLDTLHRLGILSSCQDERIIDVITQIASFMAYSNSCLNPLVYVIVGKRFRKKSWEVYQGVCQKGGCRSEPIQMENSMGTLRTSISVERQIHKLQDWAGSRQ
Format: cell-based
Procedure: In vitro Assay of hB2 Receptor Function using Calcium Flux The intracellular calcium flux induced by hB2 receptor activation was analyzed using an hB2 recombinant cell line (CHO-K1) purchased from PerkinElmer (Catalog Number: RBHB2C000EA) on a fluorometric imaging plate reader (FLIPR). […] Culture medium was changed every other day. 24 h prior to the FLIPR assay, the hB2/CHO cells were washed once with PBS (Invitrogen) and 10 mL of Versene (1:5000, Invitrogen, Cat# 15040-066) was added to each flask. After 5 min incubation at 37° C., Versene was removed and cells were detached from the flask and resuspended in culture medium. Cells were counted and 25,000 cells/well were plated in 96-well black-sided clear bottom assay plates (Costar #3904). Cells were incubated in a 37° C. CO2 incubator overnight. The media was aspirated from the cells and replaced with 65 μL of dye-loading buffer. The loading buffer was prepared by diluting a stock solution of 0.5 mM Fluo-4 AM (Molecular Probes, dissolved in DMSO containing 10% [w/v] pluronic acid) to a concentration of 1 μM in Clear Dulbecco's Modified Eagle Medium (DMEM) containing 0.1% BSA, 20 mM HEPES, and 2.5 mM probenecid. The cells were dye-loaded for 1 h at RT. The excess dye was removed by washing the cells 2× with assay buffer. The assay buffer consists of Hank's Balanced Salt Solution (HBSS) containing 20 mM HEPES, 0.1% BSA, and 2.5 mM probenecid. After the wash cycles, a volume of 100 μL was left in each well, and the plate was ready to be assayed in the FLIPR System. […] The cell plate and the compound plates were loaded onto the FLIPR and during the assay, fluorescence readings are taken simultaneously from all 96 wells of the cell plate. Ten 1-second readings were taken to establish a stable baseline for each well, then 25 μL from the B1 antagonist plate was rapidly (50 μL/sec.) added. The fluorescence signal was measured in 1-second (1 min) followed by 6-second (2 min) intervals for a total of 3 min to determine if there is any agonist activity with the compounds.

**Q.** How did the IC50 turn out when “1,1-dimethylethyl (3R)-3-((((2R)-1-((4-methylphenyl)sulfonyl)-3-oxo-1,2,3,4-tetrahydro-2-pyrazinyl)acetyl)amino)-1-piperidinecarboxylate; and 1,1-dimethylethyl (3S)-3-((((2R)-1-((4-methylphenyl)sulfonyl)-3-oxo-1,2,3,4-tetrahydro-2-pyrazinyl)acetyl)amino)-1-piperidinecarboxylate [T-1-8]” was run?
**A.** 170 nM

**Q.** For “2-((2R)-1-((2,3-dichlorophenyl)sulfonyl)-3-oxo-1,2,3,4-tetrahydro-2-pyrazinyl)-N-((4S)-3,3-dimethyl-4-piperidinyl)acetamide; and 2-((2R)-1-((2,3-dichlorophenyl)sulfonyl)-3-oxo-1,2,3,4-tetrahydro-2-pyrazinyl)-N-((4R)-3,3-dimethyl-4-piperidinyl)acetamide [T-1-47]”, which IC50 is on record?
**A.** 0.8 nM

**Q.** Which IC50 does the source give for “2-((2R)-1-((4-chloro-2,5-dimethylphenyl)sulfonyl)-3-oxo-1,2,3,4-tetrahydro-2-pyrazinyl)-N-((4S)-3,3-dimethyl-4-piperidinyl)acetamide; and 2-((2R)-1-((4-chloro-2,5-dimethylphenyl)sulfonyl)-3-oxo-1,2,3,4-tetrahydro-2-pyrazinyl)-N-((4R)-3,3-dimethyl-4-piperidinyl)acetamide [T-1-48]” here?
**A.** 400 nM

**Q.** How did the IC50 turn out when “2-((2R)-1-((4-methylphenyl)sulfonyl)-3-oxo-1,2,3,4-tetrahydro-2-pyrazinyl)-N-((1R,2R,4R)-1,7,7-trimethylbicyclo[2.2.1]hept-2-yl)acetamide; and 2-((2R)-1-((4-methylphenyl)sulfonyl)-3-oxo-1,2,3,4-tetrahydro-2-pyrazinyl)-N-((1R,2S,4R)-1,7,7-trimethylbicyclo[2.2.1]hept-2-yl)acetamide [T-1-2]” was run?
**A.** 92 nM

**Q.** Cc1ccc(S(=O)(=O)N2C=CNC(=O)[C@H]2CC(=O)NC2CCN(C(=O)OC(C)(C)C)CC2(C)C)cc1 (mixture of isomers) [T-1-15, 1,1-dimethylethyl (4R)-3,3-dimethyl-4-((((2R)-1-((4-methylphenyl)sulfonyl)-3-oxo-1,2,3,4-tetrahydro-2-pyrazinyl)acetyl)amino)-1-piperidinecarboxylate; and 1,1-dimethylethyl (4S)-3,3-dimethyl-4-((((2R)-1-((4-methylphenyl)sulfonyl)-3-oxo-1,2,3,4-tetrahydro-2-pyrazinyl)acetyl)amino)-1-piperidinecarboxylate] was tested. Which IC50 did it give?
**A.** 150 nM and 430 nM

**Q.** With Cc1ccc(S(=O)(=O)N2C=CNC(=O)[C@H]2CC(=O)NC2CCN(Cc3ccncc3)CC2(C)C)cc1 (mixture of isomers) [T-1-25, N-((4R)-3,3-dimethyl-1-(4-pyridinylmethyl)-4-piperidinyl)-2-((2R)-1-((4-methylphenyl)sulfonyl)-3-oxo-1,2,3,4-tetrahydro-2-pyrazinyl)acetamide; and N-((4S)-3,3-dimethyl-1-(4-pyridinylmethyl)-4-piperidinyl)-2-((2R)-1-((4-methyl-phenyl)sulfonyl)-3-oxo-1,2,3,4-tetrahydro-2-pyrazinyl)acetamide] as the molecule, how does the IC50 read?
**A.** 1.21 nM

**Q.** For Cc1ccc(S(=O)(=O)N2C=CNC(=O)[C@H]2CC(=O)NC2CCC(N3CCC(F)CC3)CC2(C)C)cc1 (mixture of isomers) [T-1-42], which IC50 is on record?
**A.** 1980 nM

**Q.** With Cc1ccc(S(=O)(=O)N2C=CNC(=O)[C@H]2CC(=O)NC2CCC(NC3CC3)CC2(C)C)cc1 (mixture of isomers) [T-1-43] as the molecule, how does the IC50 read?
**A.** 14 nM

**Q.** With Cc1ccc(S(=O)(=O)N2C=CNC(=O)[C@H]2CC(=O)NC2CCC(NCC(C)(C)C)CC2(C)C)cc1 (mixture of isomers) [T-1-44] as the molecule, how does the IC50 read?
**A.** 2300 nM

**Q.** For Cc1ccc(S(=O)(=O)N2C=CNC(=O)[C@H]2CC(=O)NC2CCC(N3CCCC3)CC2(C)C)cc1 (mixture of isomers) [T-1-50], which IC50 is on record?
**A.** 1.3 nM

**Q.** For Cc1ccc(S(=O)(=O)N2C=CNC(=O)[C@H]2CC(=O)N[C@@H]2CCCC[C@H]2C(C)(C)O)cc1 (mixture of isomers) [T-1-65, N-((1RS,2RS)-2-(1-hydroxy-1-methylethyl)cyclohexyl)-2-((2R)-1-((4-methylphenyl)sulfonyl)-3-oxo-1,2,3,4-tetrahydro-2-pyrazinyl)acetamide], which IC50 is on record?
**A.** 2700 nM

**Q.** For Cc1ccc(S(=O)(=O)N2C=CNC(=O)[C@H]2CC(=O)NC2CC(=O)OC(C)(C)C2)cc1 (mixture of isomers) [T-1-67, N-((4RS)-2,2-dimethyl-6-oxotetrahydro-2H-pyran-4-yl)-2-((2R)-1-((4-methylphenyl)sulfonyl)-3-oxo-1,2,3,4-tetrahydro-2-pyrazinyl)acetamide], which IC50 is on record?
**A.** 2200 nM

**Q.** Which IC50 does the source give for Cc1ccc(S(=O)(=O)N2C=CNC(=O)[C@H]2CC(=O)NC2CCC3(CC2(C)C)OCCO3)cc1 (mixture of isomers) [T-1-111, N-((8RS)-7,7-dimethyl-1,4-dioxaspiro[4.5]dec-8-yl)-2-((2R)-1-((4-methylphenyl)-sulfonyl)-3-oxo-1,2,3,4-tetrahydro-2-pyrazinyl)acetamide] here?
**A.** 1.4 nM

**Q.** For Cc1cc(S(=O)(=O)N2C=CNC(=O)[C@H]2CC(=O)N2CCCC(N(C)C3CC3)CC2)c(C)cc1Cl (mixture of isomers) [T-3-28, (3R)-4-((4-chloro-2,5-dimethylphenyl)sulfonyl)-3-(2-((4R/S)-4-(cyclopropyl(methyl)amino)-1-azepanyl)-2-oxoethyl)-3,4-dihydro-2(1H)-pyrazinone trifluoroacetic acid salt], which IC50 is on record?
**A.** 32 nM

**Q.** Which IC50 does the source give for Cc1cc(S(=O)(=O)N2C=CNC(=O)[C@H]2CC(=O)N2CCC(N3CCCC3)C(C)(C)C2)c(C)cc1Cl (mixture of isomers) [T-3-30, (3R)-4-((4-chloro-2,5-dimethylphenyl)sulfonyl)-3-(2-((4R/S)-3,3-dimethyl-4-(1-pyrrolidinyl)-1-piperidinyl)-2-oxoethyl)-3,4-dihydro-2(1H)-pyrazinone] here?
**A.** 61 nM

**Q.** Which IC50 does the source give for Cc1ccc(S(=O)(=O)N2C=CNC(=O)[C@H]2CC(=O)NC2CCN(c3ccccc3)CC2)cc1 [T-1-3, 2-((2R)-1-((4-methylphenyl)sulfonyl)-3-oxo-1,2,3,4-tetrahydro-2-pyrazinyl)-N-(1-phenyl-4-piperidinyl)acetamide] here?
**A.** 21 nM

**Q.** How did the IC50 turn out when Cc1ccc(S(=O)(=O)N2C=CNC(=O)[C@H]2CC(=O)NC2CCN(c3ncccn3)CC2)cc1 [T-1-7, 2-((2R)-1-((4-methylphenyl)sulfonyl)-3-oxo-1,2,3,4-tetrahydro-2-pyrazinyl)-N-(1-(2-pyrimidinyl)-4-piperidinyl)acetamide] was run?
**A.** 700 nM

**Q.** How did the IC50 turn out when CC(=O)N1CCC(NC(=O)C[C@@H]2C(=O)NC=CN2S(=O)(=O)c2ccc(C)cc2)C(C)(C)C1 (stereo partly drawn) [T-1-18, N-(1-acetyl-3,3-dimethyl-4-piperidinyl)-2-((2R)-1-((4-methylphenyl)sulfonyl)-3-oxo-1,2,3,4-tetrahydro-2-pyrazinyl)acetamide] was run?
**A.** 15 nM

**Q.** CO[C@H]1CC[C@H](NC(=O)C[C@@H]2C(=O)NC=CN2S(=O)(=O)c2ccc(C)cc2)CC1 [T-1-30, N-(trans-4-(methyloxy)cyclohexyl)-2-((2R)-1-((4-methylphenyl)sulfonyl)-3-oxo-1,2,3,4-tetrahydro-2-pyrazinyl)acetamide] was tested. Which IC50 did it give?
**A.** 190 nM

**Q.** With Cc1ccc(S(=O)(=O)N2C=CNC(=O)[C@H]2CC(=O)N[C@H]2CC[C@@H](N)CC2)cc1 [T-1-31, N-(cis-4-aminocyclohexyl)-2-((2R)-1-((4-methylphenyl)sulfonyl)-3-oxo-1,2,3,4-tetrahydro-2-pyrazinyl)acetamide] as the molecule, how does the IC50 read?
**A.** 47 nM

**Q.** For Cc1ccc(S(=O)(=O)N2C=CNC(=O)[C@H]2CC(=O)NC2CC3CCC(C2)N3C)cc1 (stereo partly drawn) [T-1-34, N-((3-endo)-8-methyl-8-azabicyclo[3.2.1]oct-3-yl)-2-((2R)-1-((4-methylphenyl)-sulfonyl)-3-oxo-1,2,3,4-tetrahydro-2-pyrazinyl)acetamide; and N-((3-exo)-8-methyl-8-azabicyclo[3.2.1]oct-3-yl)-2-((2R)-1-((4-methylphenyl)-sulfonyl)-3-oxo-1,2,3,4-tetrahydro-2-pyrazinyl)acetamide], which IC50 is on record?
**A.** 140 nM

**Q.** With Cc1ccc(S(=O)(=O)N2C=CNC(=O)[C@H]2CC(=O)N[C@H]2CC[C@@H](NC(C)C)CC2)cc1 [T-1-35, N-(cis-4-((1-methylethyl)amino)cyclohexyl)-2-((2R)-1-((4-methylphenyl)sulfonyl)-3-oxo-1,2,3,4-tetrahydro-2-pyrazinyl)acetamide] as the molecule, how does the IC50 read?
**A.** 420 nM
